EC50 data for 24 molecules are collected here from US12655125B2 (SIRONAX LTD., priority 2020, dated 2026).

In the experiment the test system is HT-29 cells. The experiment is described as follows: HT29 Cells 0FBS Assay In Vitro (TNF-α/SMAC mimetic/zVAD-FMK induced necroptosis, CellTiter-Glo cell viability). The conditions noted are these: Homo sapiens, HT-29 cells, FBS free medium, TNF-α (10 ng/ml), SMAC mimetic (6 uM), zVAD-FMK (10 μM), 20 hours, geometric mean EC50. It counts as cell-based. An outline of the steps:
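Viability was measured by ATP luminescence (CellTiter-Glo) after 20 h at 37° C of compound exposure in 10-point, 1:3 dilutions. Necroptosis in FBS-free HT-29 cultures was driven by a TNF-α (10 ng/ml), SMAC mimetic (6 μM) and zVAD-FMK (10 μM) cocktail. EC50 values are geometric means from duplicate curves.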

Setting [1] is: read-out: Cell activity (EC50) of Compounds 117-281.
The mark [2] stands for this setting: read-out: Cell activity (EC50) of Compounds 1-116.

Read-outs that look alike come from different tables or passages of the source.

As usually defined, the EC50 is the midpoint of the concentration-response curve. `Cc1nn(-c2cc(OC3CN(C(=O)N4N=CC[C@H]4c4cc(F)cc(F)c4)C3)c(F)cn2)c(C)c1S(C)(=O)=O` [compound 190, (S)-(5-(3,5-difluorophenyl)-4,5-dihydro-1H-pyrazol-1-yl)(3-((2-(3,5-dimethyl-4-(methylsulfonyl)-1H-pyrazol-1-yl)-5-fluoropyridin-4-yl)oxy)azetidin-1-yl)methanone]: under setting [1], the concentration giving a half-maximal response (EC50) was in the range of 0.1 to 100 nM.
Same read-out and setting: with `Cc1c(-c2cc(OC3CN(C(=O)N4N=CC[C@H]4c4cc(F)cc(F)c4)C3)c(F)cn2)c(C)n(C)c1N` [compound 206, (S)-(3-((2-(5-amino-1,2,4-trimethyl-1H-pyrrol-3-yl)-5-fluoropyridin-4-yl)oxy)azetidin-1-yl)(5-(3,5-difluorophenyl)-4,5-dihydro-1H-pyrazol-1-yl)methanone] the figure was 0.1 to 100 nM.
Still for that read-out and setting: with `Cc1nn(-c2cc(OC3CN(C(=O)N4N=CC[C@H]4c4cc(F)cc(F)c4)C3)c(F)cn2)c(C)c1CCO` [compound 259, (S)-(5-(3,5-difluorophenyl)-4,5-dihydro-1H-pyrazol-1-yl)(3-((5-fluoro-2-(4-(2-hydroxyethyl)-3,5-dimethyl-1H-pyrazol-1-yl)pyridin-4-yl)oxy)azetidin-1-yl)methanone] the figure was 0.1 to 100 nM.
Regarding `Cc1nn(CC(N)=O)c(C)c1-c1cc(OC2CN(C(=O)N3N=CC[C@H]3c3cc(F)cc(F)c3)C2)c(F)cn1` [compound 94, (S)-2-(4-(4-((1-(5-(3,5-difluorophenyl)-4,5-dihydro-1H-pyrazole-1-carbonyl)azetidin-3-yl)oxy)-5-fluoropyridin-2-yl)-3,5-dimethyl-1H-pyrazol-1-yl)acetamide], the concentration for a half-maximal effect (EC50) under setting [2] was in the range of 0.1 to 100 nM.
On to `Cc1n[nH]c(N)c1-c1cc(OC2CN(C(=O)N3N=CC[C@H]3c3cc(F)cc(F)c3)C2)c(F)cn1` [compound 205, (S)-(3-((2-(5-amino-3-methyl-1H-pyrazol-4-yl)-5-fluoropyridin-4-yl)oxy)azetidin-1-yl)(5-(3,5-difluorophenyl)-4,5-dihydro-1H-pyrazol-1-yl)methanone], for which the EC50 under setting [1] fell in the range of 0.1 to 100 nM.
On the same count and under the same terms, with `Cc1nn(C2CCOCC2)c(C)c1-c1cc(OC2CN(C(=O)N3N=CC[C@H]3c3cc(F)cc(F)c3)C2)c(F)cn1` [compound 157, (S)-(5-(3,5-difluorophenyl)-4,5-dihydro-1H-pyrazol-1-yl)(3-((2-(3,5-dimethyl-1-(tetrahydro-2H-pyran-4-yl)-1H-pyrazol-4-yl)-5-fluoropyridin-4-yl)oxy)azetidin-1-yl)methanone] the figure was 0.1 to 100 nM.
Regarding `Cn1ncc(-c2cc(OC3CN(C(=O)N4N=CC[C@H]4c4cc(F)cc(F)c4)C3)c(F)cn2)n1` [compound 33, (S)-(5-(3,5-difluorophenyl)-4,5-dihydro-1H-pyrazol-1-yl)(3-((5-fluoro-2-(2-methyl-2H-1,2,3-triazol-4-yl)pyridin-4-yl)oxy)azetidin-1-yl)methanone], the EC50 under setting [2] lay within 0.1 to 100 nM.
With `Cc1c(-c2cc(OC3CN(C(=O)N4N=CC[C@H]4c4cc(F)cc(F)c4)C3)c(F)cn2)nn(C)c1C(=O)NC1CC(O)C1` (stereo partly drawn) [compound 263, (S)-3-(4-((1-(5-(3,5-difluorophenyl)-4,5-dihydro-1H-pyrazole-1-carbonyl)azetidin-3-yl)oxy)-5-fluoropyridin-2-yl)-N-(3-hydroxycyclobutyl)-1,4-dimethyl-1H-pyrazole-5-carboxamide], the concentration for a half-maximal effect (EC50) under setting [1] was in the range of 0.1 to 100 nM.
Still for that read-out and setting: the same measure for `CSc1nn(C)c(-c2cc(OC3CN(C(=O)N4N=CC[C@H]4c4cc(F)cc(F)c4)C3)c(F)cn2)c1C` [compound 176, (S)-(5-(3,5-difluorophenyl)-4,5-dihydro-1H-pyrazol-1-yl)(3-((2-(1,4-dimethyl-3-(methylthio)-1H-pyrazol-5-yl)-5-fluoropyridin-4-yl)oxy)azetidin-1-yl)methanone]: 0.1 to 100 nM.
With `Cn1nccc1-c1ccc(F)c(OC2CN(C(=O)N3N=CC[C@H]3c3cc(F)cc(F)c3)C2)n1` (stereo in doubt) [compound 1, (5-(3,5-difluorophenyl)-4,5-dihydro-1H-pyrazol-1-yl)(3-((3-fluoro-6-(1-methyl-1H-pyrazol-5-yl)pyridin-2-yl)oxy)azetidin-1-yl)methanone], the EC50 under setting [2] was in the range of 0.1 to 100 nM.
As to `Cc1c(C#N)nn(C)c1-c1cc(OC2CN(C(=O)N3N=CC[C@H]3c3cc(F)cc(F)c3)C2)c(F)cn1` [compound 150, (S)-5-(4-((1-(5-(3,5-difluorophenyl)-4,5-dihydro-1H-pyrazole-1-carbonyl)azetidin-3-yl)oxy)-5-fluoropyridin-2-yl)-1,4-dimethyl-1H-pyrazole-3-carbonitrile], the EC50 under setting [1] is 0.1 to 100 nM.
In the case of `Cc1c(-c2cc(OC3CN(C(=O)N4N=CC[C@H]4c4cc(F)cc(F)c4)C3)c(F)cn2)c(CO)nn1CC1CC1` [compound 168, (S)-(3-((2-(1-(cyclopropylmethyl)-3-(hydroxymethyl)-5-methyl-1H-pyrazol-4-yl)-5-fluoropyridin-4-yl)oxy)azetidin-1-yl)(5-(3,5-difluorophenyl)-4,5-dihydro-1H-pyrazol-1-yl)methanone], the EC50 under setting [1] fell in the range of 0.1 to 100 nM.
On the same count and under the same terms, the same measure for `Cc1nn(-c2cc(OC3CN(C(=O)N4N=CC[C@H]4c4cc(F)cc(F)c4)C3)c(F)cn2)c(C)c1C(C)(C)C(=O)O` [compound 279, (S)-2-(1-(4-((1-(5-(3,5-difluorophenyl)-4,5-dihydro-1H-pyrazole-1-carbonyl)azetidin-3-yl)oxy)-5-fluoropyridin-2-yl)-3,5-dimethyl-1H-pyrazol-4-yl)-2-methylpropanoic acid]: 100 to 1000 nM.
As for `Cn1ncnc1-c1ncc(F)c(OC2CN(C(=O)N3N=CC[C@H]3c3cc(F)cc(F)c3)C2)n1` [compound 30, (S)-(5-(3,5-difluorophenyl)-4,5-dihydro-1H-pyrazol-1-yl)(3-((5-fluoro-2-(1-methyl-1H-1,2,4-triazol-5-yl)pyrimidin-4-yl)oxy)azetidin-1-yl)methanone], the half-maximal effective concentration (EC50) under setting [2] lay in the range of 0.1 to 100 nM.
With `Cc1nn(-c2cc(OC3CN(C(=O)N4N=CC[C@H]4c4cc(F)cc(F)c4)C3)c(F)cn2)c(C)c1C(=O)N(C)C` [compound 192, (S)-1-(4-((1-(5-(3,5-difluorophenyl)-4,5-dihydro-1H-pyrazole-1-carbonyl)azetidin-3-yl)oxy)-5-fluoropyridin-2-yl)-N,N,3,5-tetramethyl-1H-pyrazole-4-carboxamide], the EC50 under setting [1] was in the range of 0.1 to 100 nM.
On the same count and under the same terms, with `Cc1nn(-c2cc(OC3CN(C(=O)N4N=CC[C@H]4c4cc(F)cc(F)c4)C3)c(F)cn2)c(C)c1C(=O)N1CCOCC1` [compound 184, (S)-(5-(3,5-difluorophenyl)-4,5-dihydro-1H-pyrazol-1-yl)(3-((2-(3,5-dimethyl-4-(morpholine-4-carbonyl)-1H-pyrazol-1-yl)-5-fluoropyridin-4-yl)oxy)azetidin-1-yl)methanone] the figure was 0.1 to 100 nM.
Still for that read-out and setting: the same measure for `CNc1nn(C)c(-c2cc(OC3CN(C(=O)N4N=CC[C@H]4c4cc(F)cc(F)c4)C3)c(F)cn2)c1C` [compound 125, (S)-(5-(3,5-difluorophenyl)-4,5-dihydro-1H-pyrazol-1-yl)(3-((2-(1,4-dimethyl-3-(methylamino)-1H-pyrazol-5-yl)-5-fluoropyridin-4-yl)oxy)azetidin-1-yl)methanone]: 0.1 to 100 nM.
Take `Cc1ncc(-c2cc(OC3CN(C(=O)N4N=CC[C@H]4c4cc(F)cc(F)c4)C3)c(F)cn2)s1` [compound 26, (S)-(5-(3,5-difluorophenyl)-4,5-dihydro-1H-pyrazol-1-yl)(3-((5-fluoro-2-(2-methylthiazol-5-yl)pyridin-4-yl)oxy)azetidin-1-yl)methanone]: the 50% effective concentration (EC50) under setting [2] fell in the range of 0.1 to 100 nM.
The same measure, in the same setting: with `CCn1nccc1-c1cc(OC2CN(C(=O)N3N=CC[C@H]3c3cc(F)cc(F)c3)C2)c(F)cn1` [compound 4, (S)-(5-(3,5-difluorophenyl)-4,5-dihydro-1H-pyrazol-1-yl)(3-((2-(1-ethyl-1H-pyrazol-5-yl)-5-fluoropyridin-4-yl)oxy)azetidin-1-yl)methanone] the figure was 0.1 to 100 nM.
As to `CC(C)CC(=O)Nc1cnn(C)c1-c1cc(OC2CN(C(=O)N3N=CC[C@H]3c3cc(F)cc(F)c3)C2)c(F)cn1` [compound 60, (S)—N-(5-(4-((1-(5-(3,5-difluorophenyl)-4,5-dihydro-1H-pyrazole-1-carbonyl)azetidin-3-yl)oxy)-5-fluoropyridin-2-yl)-1-methyl-1H-pyrazol-4-yl)-3-methylbutanamide], the half-maximal effective concentration (EC50) under setting [2] lay in the range of 0.1 to 100 nM.
On the same count and under the same terms, the same measure for `Cn1ncc(C#N)c1-c1ccc(F)c(OC2CN(C(=O)N3N=CCC3c3cc(F)cc(F)c3)C2)c1` (stereo not drawn) [compound 114]: 0.1 to 100 nM.
For the molecule `Cn1ncc(C(=O)NC2CC2)c1-c1cc(OC2CN(C(=O)N3N=CC[C@H]3c3cc(F)cc(F)c3)C2)c(F)cn1` [compound 134, (S)—N-cyclopropyl-5-(4-((1-(5-(3,5-difluorophenyl)-4,5-dihydro-1H-pyrazole-1-carbonyl)azetidin-3-yl)oxy)-5-fluoropyridin-2-yl)-1-methyl-1H-pyrazole-4-carboxamide], under setting [1], the EC50 lay within 0.1 to 100 nM.
For `Cc1nc(C)n(-c2ncc(F)c(OC3CN(C(=O)N4N=CC[C@H]4c4cc(F)cc(F)c4)C3)n2)n1` [compound 103, (S)-(5-(3,5-difluorophenyl)-4,5-dihydro-1H-pyrazol-1-yl)(3-((2-(3,5-dimethyl-1H-1,2,4-triazol-1-yl)-5-fluoropyrimidin-4-yl)oxy)azetidin-1-yl)methanone], the EC50 under setting [2] lay in the range of 0.1 to 100 nM.
Take `Cn1nc(C(N)=O)cc1-c1cc(OC2CN(C(=O)N3N=CC[C@H]3c3cc(F)cc(F)c3)C2)c(F)cn1` [compound 172, (S)-5-(4-((1-(5-(3,5-difluorophenyl)-4,5-dihydro-1H-pyrazole-1-carbonyl)azetidin-3-yl)oxy)-5-fluoropyridin-2-yl)-1-methyl-1H-pyrazole-3-carboxamide]: the concentration giving a half-maximal response (EC50) under setting [1] lay within 0.1 to 100 nM.
